Measured values taken from patent US4771050A, “Thiolactam-n-acetic acid derivatives” (Takeda Chemical Industries, Ltd., priority 1986, dated 1988).
Read-outs that look alike come from different tables or passages of the source.

Tests used:
[1] = molecular target: T1, aldose reductase from human placenta (Homo sapiens, UniProt P15121); test: Aldose reductase inhibition (in vitro study); type: biochemical; settings: for inhibition at 1 µM: 10^-6 M; for inhibition at 0.1 µM: 10^-7 M
T1 construct: Partially purified aldose reductase from human placenta; from tissue; host or cells: human placenta
From the text: 1. Aldose reductase inhibition (in vitro study)
Partially purified aldose reductase from human placenta was used for the test of aldose reductase inhibitory effect according to the method of S. Hayman et al. described in Journal of Biological Chemistry, 240, 877 (1965) or the method of J. H. Kinoshita et al. described in Metabolism, 28, Supplement 1, 462 (1979).

[2] = system: sorbitol accumulation in sciatic nerves of streptozocin diabetic rats; test: Inhibition of sorbitol accumulation in the tissue of experimentally induced diabetic rat; type: in vivo, rat (Spraque-Dawley); settings: for sorbitol accumulation: sciatic nerve, untreated control group = 100; for inhibition of sorbitol accumulation in vivo compared with control compounds (in words): vs control compounds A, B, C
Method: Spraque-Dawley rats (male, 5-7-week-old, 5 animals per group) were fasted for 18 hours, and received injection of 70 mg/kg of streptozocin (Cal Biochem Co.) into the caudal vein under anesthesia with ether, so that diabetic rats were obtained. From immediately after the injection of streptozocin these rats were given orally the test compound of 50 mg/kg or 30 mg/kg in the form of 5% gum arabic suspension twice a day (at 10 a.m. and 5 p.m.) for 2 days. During this period the rats were allowed to take CE-2 diet (Clea Japan, Inc.) and water ad libitum. In the morning on the 3rd day (9 a.m.) the rats were killed (decapitation and venesection), and immediately the sciatic nerves were isolated, from which sorbitol was extracted according to the method of M. J. Peterson et al. described in Metabolism, 28, 456 (1979) and the sorbitol level was determined by the enzymatic method of P.S. Clements et al. in Science, 166, 1007 (1969).

washed rat platelets = test: Inhibitory action on platelet aggregation (washed rat platelets); type: cell-based, rat (Spraque-Dawley); settings: for inhibition at 300 µM: 3 × 10^-4 M; for inhibition at 100 µM: 10^-4 M
Method: 3. Inhibitory action on platelet aggregation
Effect of 3,4-dihydro-2,8-diisopropyl-3-thioxo-2H-1,4-benzoxazine-4-acetic acid on platelet aggregation was examined using washed rat platelets.
Platelet rich plasma (PRP) was prepared by centrifuging the blood at 150 xg for 15 min at room temperature. To prepare washed platelets, the PRP was centrifuged at 1500 xg for 10 min and the precipitated platelets were resuspended in Tyrode's solution. The number of platelets used was 7×10^5 cells/mm^3. Platelet aggregation was measured by the turbidmetric method using an aggregometer (Nikko Bioscience, Model PAR-4M, Tokyo). The test compound dissolved in 10 μl of water was added to 250 μl of washed platelet suspension and incubated at 37° C. for 3 min before 10 μl of aggregating agents ([…] of collagen, Nikko Bioscience or 10 μM of ADP, Shigma, St. Louis, Mo., at the final concentration) was added.

[3] = Acute toxicity in mice (oral); parameters: species or system mouse (ICR); settings: in vivo, mouse, mortality during 14 days
From the text: (§1) Acute toxicity of 3,4-dihydro-2,8-diisopropyl-3-thioxo-2H-1,4-benzoxazine-4-acetic acid was examined in mice and rats.
(§2) The various doses of the test compound suspended in 5% gum arabic solution were orally administered to male ICR mice (4 weeks old) and male Wistar rats (5 weeks old), and then mortality was observed during 14 days. Each group consisted of 5 animals.

[4] = Acute toxicity in rats (oral); parameters: species or system rat (Wistar); settings: in vivo, rat, mortality during 14 days
From the text: as §1, §2

[5] = 30 mg/kg orally twice a day for 2 days
[6] = 50 mg/kg orally twice a day for 2 days
[7] = Rattus norvegicus, Platelet, inducer ADP, Mean ± SD (N = 3), read-out: percent inhibition of aggregation
[8] = Rattus norvegicus, Platelet, inducer collagen, Mean ± SD (N = 3), read-out: percent inhibition of aggregation
[9] = Rattus norvegicus, Platelet, read-out: percent inhibition of aggregation, inducer ADP, Mean ± SD (N = 3)

With `O=C(O)CN1C(=S)COc2ccc(F)cc21` [Control A, 6fluoro-3,4-dihydro-3-thioxo-2H--1,4benzoxazine-4-acetic acid, reference compound] the inhibition at 1 µM [1] was 50.8%, the inhibition at 0.1 µM [1] was 25% and the sorbitol accumulation [2, 5] was 73%. The sorbitol accumulation [2, 6] was 60%.

`O=C(O)CN1C(=S)CSc2ccccc21` [Control B, 3,4dihydro-3-thioxo-2H--1,4benzothiazine-4-acetic acid, reference compound] gave an inhibition at 1 µM [1] of 43.1%, an inhibition at 0.1 µM [1] of 15.7% and a sorbitol accumulation [2, 6] of 78%.

`CC1Sc2ccccc2N(CC(=O)O)C1=S` (stereo not drawn) [Control C, 3,4dihydro-2-methyl-3-thioxo-2H--1,4benzothiazine-4-acetic acid, reference compound] gave an inhibition at 1 µM [1] of 48.7%, an inhibition at 0.1 µM [1] of 19.6% and a sorbitol accumulation [2, 6] of 71%.

`CC(C)C1Oc2ccccc2N(CC(=O)O)C1=S` (stereo not drawn) [Example 1, 3,4-dihydro-2-isopropyl-3-thioxo-2H-1,4-benzoxazine-4-acetic acid] showed an inhibition at 1 µM [1] of 46.7%, an inhibition at 0.1 µM [1] of 19.1% and a sorbitol accumulation [2, 5] of 51%. The sorbitol accumulation [2, 6] was 18%.

`CC(C)C1Oc2ccc(F)cc2N(CC(=O)O)C1=S` (stereo not drawn) [Example 2, 6-fluoro-3,4-dihydro-2-isopropyl-3-thioxo-2H-1,4-benzoxazine-4-acetic acid] gave an inhibition at 1 µM [1] of 43.9%, an inhibition at 0.1 µM [1] of 8.7% and a sorbitol accumulation [2, 5] of 33%. For the same molecule, the sorbitol accumulation [2, 6] was 12% and the “inhibition of sorbitol accumulation in vivo compared with control compounds (in words)” value [2] was “The difference is particularly evident”.

With `CC(C)C1Oc2c(Cl)cccc2N(CC(=O)O)C1=S` (stereo not drawn) [Example 3, 8-chloro-3,4-dihydro-2-isopropyl-3-thioxo-2H-1,4-benzoxazine-4-acetic acid] the inhibition at 1 µM [1] was 48.9%, the inhibition at 0.1 µM [1] was 8.9% and the sorbitol accumulation [2, 6] was 23%.

With `CC(C)C1Oc2c(F)cccc2N(CC(=O)O)C1=S` (stereo not drawn) [Example 4, 8-fluoro-3,4-dihydro-2-isopropyl-3-thioxo-2H-1,4-benzoxazine-4-acetic acid] the inhibition at 1 µM [1] was 45.6%, the inhibition at 0.1 µM [1] was 3.8% and the sorbitol accumulation [2, 5] was 45%. It also gave a sorbitol accumulation [2, 6] of 14%.

In the case of `COc1cccc2c1OC(C(C)C)C(=S)N2CC(=O)O` (stereo not drawn) [Example 5, 3,4-dihydro-2-isopropyl-8-methoxy-3-thioxo-2H-1,4-benzoxazine-4-acetic acid], the inhibition at 1 µM [1] is reported as 48.1%, the inhibition at 0.1 µM [1] is reported as 17.3% and the sorbitol accumulation [2, 5] is reported as 29%. The sorbitol accumulation [2, 6] was 11%.

`Cc1cccc2c1OC(C(C)C)C(=S)N2CC(=O)O` (stereo not drawn) [Example 6, 3,4-dihydro-2-isopropyl-8-methyl-3-thioxo2H-1,4-benzoxazine-4-acetic acid] gave an inhibition at 1 µM [1] of 48.2%, an inhibition at 0.1 µM [1] of 9.4% and a sorbitol accumulation [2, 5] of 33%. For the same molecule, the sorbitol accumulation [2, 6] was 16%.

`COc1ccc2c(c1)OC(C(C)C)C(=S)N2CC(=O)O` (stereo not drawn) [Example 7, 3,4-dihydro-2-isopropyl-7-methoxy-3-thioxo-2H-1,4-benzoxazine-4-acetic acid] showed an inhibition at 1 µM [1] of 50%, an inhibition at 0.1 µM [1] of 14.9% and a sorbitol accumulation [2, 5] of 27%.

`CC(C)c1cccc2c1OC(C(C)C)C(=S)N2CC(=O)O` (stereo not drawn) [Example 8, 3,4-dihydro-2,8-diisopropyl-3-thioxo-2H-1,4-benzoxazine-4-acetic acid] gave an inhibition at 1 µM [1] of 50.2%, an inhibition at 0.1 µM [1] of 9.1% and a sorbitol accumulation [2, 5] of 30%. The “inhibitory action compared with indomethacin (in words)” value (washed rat platelets; ADP-induced aggregation) was “more potent than that of indomethacin”, the inhibition at 300 µM (washed rat platelets; [7]) was 42 ± 7.1% and the inhibition at 100 µM (washed rat platelets; [7]) was 90 ± 6%. It also gave an inhibition at 300 µM (washed rat platelets; [8]) of 24.1 ± 3.4%, an inhibition at 30 µM (washed rat platelets; Rattus norvegicus, Platelet, inducer collagen, 3 × 10^-5 M, Mean ± SD (N = 3), read-out: percent inhibition of aggregation) of 74.5 ± 5.5% and an inhibition at 60 µM (washed rat platelets; Rattus norvegicus, Platelet, inducer collagen, 6 × 10^-5 M, Mean ± SD (N = 3), read-out: percent inhibition of aggregation) of 46.5 ± 1.3%. The inhibition at 100 µM (washed rat platelets; [8]) was 31.8 ± 0.9%, the “inhibition of aggregation of washed platelets (in words)” value (washed rat platelets; induced by either collagen or ADP) was “inhibited aggregation of washed platelets induced by either collagen or ADP in a dose related manner” and the LD50 at 336 h [3] was 1880 mg/kg. It also gave an LD50 at 336 h [4] of 2830 mg/kg.

In the case of `CC(C)C1Sc2ccccc2N(CC(=O)O)C1=S` (stereo not drawn) [Example 9, 3,4-dihydro-2-isopropyl-3-thioxo-2H-1,4-benzothiazine-4-acetic acid], the inhibition at 1 µM [1] is reported as 46.4%, the inhibition at 0.1 µM [1] is reported as 20% and the sorbitol accumulation [2, 5] is reported as 60%. The sorbitol accumulation [2, 6] was 46% and the “inhibition of sorbitol accumulation in vivo compared with control compounds (in words)” value [2] was “The difference is particularly evident”.

Work on `CCC(C)C1Sc2ccccc2N(CC(=O)O)C1=S` (stereo not drawn) [Example 11, 3,4-dihydro-2-(1-methylpropyl)-3-thioxo-2H-1,4-benzothiazine-4-acetic acid] yielded an inhibition at 1 µM [1] of 47.1%, an inhibition at 0.1 µM [1] of 15.2% and a sorbitol accumulation [2, 5] of 67%. The sorbitol accumulation [2, 6] was 38% and the “inhibition of sorbitol accumulation in vivo compared with control compounds (in words)” value [2] was “The difference is particularly evident”.

For `CCOc1cccc2c1OC(C(C)C)C(=S)N2CC(=O)O` (stereo not drawn) [Example 12, 8-ethoxy-3,4-dihydro-2isopropyl3-thioxo-2H-1,4-benzoxazine-4-acetic acid], the inhibition at 1 µM [1] was 43%, the inhibition at 0.1 µM [1] was 19.2% and the sorbitol accumulation [2, 5] was 58%.

With `CCc1cccc2c1OC(C(C)C)C(=S)N2CC(=O)O` (stereo not drawn) [Example 13, 8-ethyl-3,4-dihydro-2-isopropyl-3-thioxo-2H-1,4-benzoxazine-4-acetic acid] the inhibition at 1 µM [1] was 46.8%, the inhibition at 0.1 µM [1] was 14.9% and the sorbitol accumulation [2, 5] was 35%.

In the case of `CC(C)C1Oc2cc(F)ccc2N(CC(=O)O)C1=S` (stereo not drawn) [Example 17, 7-fluoro-3,4-dihydro-2isopropyl3-thioxo-2H-1,4-benzoxazine-4-acetic acid], the inhibition at 1 µM [1] is reported as 45.7%, the inhibition at 0.1 µM [1] is reported as 2.6% and the sorbitol accumulation [2, 5] is reported as 62%.

For `CC(C)C1Oc2c(cccc2C(C)(C)C)N(CC(=O)O)C1=S` (stereo not drawn) [Example 19, 8-t-butyl-3,4-dihydro-2-isopropyl-3-thioxo-2H-1,4-benzoxazine-4-acetic acid], the inhibition at 1 µM [1] was 39.3%, the inhibition at 0.1 µM [1] was 8% and the sorbitol accumulation [2, 5] was 15%.

Molecule `CC(C)C1Oc2c(C3CCCCC3)cccc2N(CC(=O)O)C1=S` (stereo not drawn) [Example 20, 8-cyclohexyl-3,4-dihydro-2-isopropyl-3-thioxo2H-1,4-benzoxazine-4-acetic acid] has an inhibition at 1 µM [1] of 38.4%, an inhibition at 0.1 µM [1] of 4.6% and a sorbitol accumulation [2, 5] of 25%.

Molecule `COc1ccc2c(c1)c(CC(=O)O)c(C)n2C(=O)c1ccc(Cl)cc1` [Indomethacin, reference compound] has an inhibition at 300 µM (washed rat platelets; [9]) of 97.2 ± 6.4%, an inhibition at 100 µM (washed rat platelets; [9]) of 102 ± 8.4% and an inhibition at 100 µM (washed rat platelets; Rattus norvegicus, Platelet, read-out: percent inhibition of aggregation, inducer collagen, Mean ± SD (N = 3)) of 28.5 ± 1.9%.
